# Assay results published in article PMC5053523, “In Vitro Antibacterial Activity of Rhodanine Derivatives against Pathogenic Clinical Isolates” (PLoS ONE, 2016).
# Like-named read-outs stand apart in the source and are kept apart here.
# Legend:
# Type in all cases: cell-based
# [1] = system: B. cereus; experiment: Broth microdilution MIC/MBC, B. cereus; conditions: Bacillus cereus; for MBC: read-out: MBC; for MIC: read-out: MIC
# From the text: The broth microdilution technique was used, followed by subculturing on agar plates that were rhodanine—free.
# [2] = system: vancomycin resistant enterococci (VRE) E. faecium; experiment: Broth microdilution MIC/MBC, VRE E. faecium; conditions: for MIC: read-out: MIC
# [3] = system: Acinetobacter baumannii; experiment: Broth microdilution MIC, Acinetobacter baumannii
# [4] = system: vancomycin resistant enterococci (VRE) E. faecalis; experiment: Broth microdilution MIC/MBC, VRE E. faecalis; conditions: for MIC: read-out: MIC
# [5] = system: methicillin-resistant Staphylococcus aureus (MRSA); experiment: Broth microdilution MIC/MBC, MRSA
# [6] = system: Mycobacterium smegmatis; experiment: Broth microdilution MIC/MBC, Mycobacterium smegmatis; conditions: Mycolicibacterium smegmatis, ATCC14468, M. Smegmatis ATCC 14468
# [7] = system: Klebsiella pneumoniae; experiment: MIC with/without sub-MIC colistin, Klebsiella pneumoniae
# Procedure, shortened: (§1)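 Compounds plus sub-inhibitory colistin or PMBN; MIC against Gram-negatives, with control antibiotics in parallel.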
# [8] = system: Escherichia coli Δ acrAB; experiment: MIC against E. coli 1411 and AcrAB efflux pump deficient E. coli SM1411Δ acrAB
# Procedure, shortened: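 Sub-MIC colistin or PMBN added to broth MIC tests of rhodanines and reference antibiotics against Gram-negative strains; AcrAB efflux-deficient E. coli SM1411ΔacrAB also tested.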
# [9] = system: Acinetobacter baumannii; experiment: MIC with/without sub-MIC colistin, Acinetobacter baumannii
# Procedure, shortened: as §1
# [10] = system: Vancomycin Resistant Staphylococcus aureus (VRSA); experiment: Broth microdilution MIC/MBC, VRSA; conditions: for MBC / MIC: VRSA
# [11] = NRS201, B. cereus NRS 201 NR-2488
# [12] = E. faecium HM 968 Strain ERV102
# [13] = E. faecium NR31914 Strain E0120
# [14] = E. faecium Patient #1–1 NR-31903
# [15] = E. faecalis NR31972 Strain SF 28073
smiles,measurement,setting,value
O=C(O)[C@H](Cc1ccccc1)N1C(=O)/C(=C/c2cccc(-c3ccccc3)c2)SC1=S [Rh 5],MBC,[1]; B. cereus BAG1O-2 NR-28582,4 µM
same,MIC,[1]; B. cereus BAG1O-2 NR-28582,4 µM
same,MBC,[1]; B. cereus BAG1X1-1 NR-28575,4 µM
same,MIC,[1]; B. cereus BAG1X1-1 NR-28575,4 µM
same,MBC,[1]; B. cereus BAG1X2-1 NR-28578,4 µM
same,MIC,[1]; B. cereus BAG1X2-1 NR-28578,4 µM
same,MBC,[1]; B. cereus G9241 NR-9564,8 µM
same,MIC,[1]; B. cereus G9241 NR-9564,8 µM
same,MBC,[1]; B. cereus VD014 NR-22141,8 µM
same,MIC,[1]; B. cereus VD014 NR-22141,4 µM
same,MBC,[1]; B. cereus VD115 NR-22148,4 µM
same,MIC,[1]; B. cereus VD115 NR-22148,4 µM
same,MBC,[1]; B. cereus VD148 NR-22150,4 µM
same,MIC,[1]; B. cereus VD148 NR-22150,4 µM
same,MBC,[1]; [11],4 µM
same,MIC,[1]; [11],4 µM
same,MBC,[2]; E. faecium E417 HM-965,> 64 µM
same,MIC,[2]; E. faecium E417 HM-965,8 µM
same,MBC,[2]; E. faecium E1071 NR-28978,> 64 µM
same,MIC,[2]; E. faecium E1071 NR-28978,16 µM
same,MBC,[2]; [12],64 µM
same,MIC,[2]; [12],16 µM
same,MBC,[2]; [13],> 64 µM
same,MIC,[2]; [13],16 µM
same,MBC,[2]; [14],64 µM
same,MIC,[2]; [14],8 µM
same,MIC,[3]; ATCC13345,> 128 µM
same,MIC,[3]; ATCC17786,> 128 µM
same,MBC,[4]; E. faecalis ERV103 HM-934,16 µM
same,MIC,[4]; E. faecalis ERV103 HM-934,16 µM
same,MBC,[4]; [15],16 µM
same,MIC,[4]; [15],16 µM
same,MBC,[4]; E. faecalis R712 HM-335,16 µM
same,MIC,[4]; E. faecalis R712 HM-335,8 µM
same,MBC,[4]; E. faecalis S613 HM-334,16 µM
same,MIC,[4]; E. faecalis S613 HM-334,16 µM
same,MBC,[4]; E. faecalis TX0104 HM-201,16 µM
same,MIC,[4]; E. faecalis TX0104 HM-201,16 µM
same,MIC50,[5]; 11 MRSA strains,8 µM
same,MIC90,[5]; 11 MRSA strains,16 µM
same,MBC,[5]; MRSA NRS 1,16 µM
same,MIC,[5]; MRSA NRS 1,8 µM
same,MBC,[5]; MRSA NRS 19,16 µM
same,MIC,[5]; MRSA NRS 19,8 µM
same,MBC,[5]; MRSA NRS 37,16 µM
same,MIC,[5]; MRSA NRS 37,16 µM
same,MBC,[5]; MRSA NRS 107,16 µM
same,MIC,[5]; MRSA NRS 107,16 µM
same,MBC,[5]; MRSA NRS 119,8 µM
same,MIC,[5]; MRSA NRS 119,8 µM
same,MBC,[5]; MRSA NRS 382,8 µM
same,MIC,[5]; MRSA NRS 382,8 µM
same,MBC,[5]; MRSA NRS 383,16 µM
same,MIC,[5]; MRSA NRS 383,16 µM
same,MBC,[5]; MRSA NRS 384,64 µM
same,MIC,[5]; MRSA NRS 384,8 µM
same,MBC,[5]; MRSA NRS 385,16 µM
same,MIC,[5]; MRSA NRS 385,8 µM
same,MBC,[5]; MRSA NRS 386,64 µM
same,MIC,[5]; MRSA NRS 386,8 µM
same,MBC,[5]; MRSA NRS 387,8 µM
same,MIC,[5]; MRSA NRS 387,8 µM
same,MBC,[6]; read-out: MBC,16 µM
same,MIC,[6]; read-out: MIC,16 µM
same,MIC,"[7]; Klebsiella pneumoniae ATCC BAA 2146, colistin (+) […]",>64 µM
same,MIC,"[7]; Klebsiella pneumoniae, BAA2146",> 128 µM
same,MIC,[8]; E.coli 1411,> 64 µM
same,MIC,"[8]; E.coli 1411 SM (Δ acrAB, AcrAB efflux pump deficient)",> 64 µM
same,MIC,"[9]; Acinetobacter baumannii ATCC BAA747, colistin (+) […], read-out: MIC",>64 µM
same,MIC,"[9]; Acinetobacter baumannii ATCC BAA19606, colistin (+) […], read-out: MIC",>64 µM
same,MIC,"[9]; Acinetobacter baumannii, ATCCBAA747",> 128 µM
same,MIC,"[9]; Acinetobacter baumannii, ATCCBAA19606",> 128 µM
same,MIC50,"[10]; 15 VRSA strains, read-out: MIC 50",8 µM
same,MIC90,"[10]; 15 VRSA strains, read-out: MIC 90",8 µM
same,MBC,"[10]; VRSA 1, read-out: MBC",16 µM
same,MIC,"[10]; VRSA 1, read-out: MIC",8 µM
same,MBC,"[10]; VRSA 2, read-out: MBC",8 µM
same,MIC,"[10]; VRSA 2, read-out: MIC",8 µM
same,MBC,"[10]; VRSA 3a, read-out: MBC",16 µM
same,MIC,"[10]; VRSA 3a, read-out: MIC",8 µM
same,MBC,"[10]; VRSA 3b, read-out: MBC",16 µM
same,MIC,"[10]; VRSA 3b, read-out: MIC",8 µM
same,MBC,"[10]; VRSA 4, read-out: MBC",16 µM
same,MIC,"[10]; VRSA 4, read-out: MIC",8 µM
same,MBC,"[10]; VRSA 5, read-out: MBC",16 µM
same,MIC,"[10]; VRSA 5, read-out: MIC",8 µM
same,MBC,"[10]; VRSA 6, read-out: MBC",16 µM
same,MIC,"[10]; VRSA 6, read-out: MIC",8 µM
same,MBC,"[10]; VRSA 7, read-out: MBC",32 µM
same,MIC,"[10]; VRSA 7, read-out: MIC",8 µM
same,MBC,"[10]; VRSA 8, read-out: MBC",16 µM
same,MIC,"[10]; VRSA 8, read-out: MIC",8 µM
same,MBC,"[10]; VRSA 9, read-out: MBC",16 µM
same,MIC,"[10]; VRSA 9, read-out: MIC",16 µM
same,MBC,"[10]; VRSA 10, read-out: MBC",16 µM
same,MIC,"[10]; VRSA 10, read-out: MIC",8 µM
same,MBC,"[10]; VRSA 11a, read-out: MBC",16 µM
same,MIC,"[10]; VRSA 11a, read-out: MIC",8 µM
same,MBC,"[10]; VRSA 11b, read-out: MBC",16 µM
same,MIC,"[10]; VRSA 11b, read-out: MIC",8 µM
same,MBC,"[10]; VRSA 12, read-out: MBC",16 µM
same,MIC,"[10]; VRSA 12, read-out: MIC",8 µM
same,MBC,"[10]; VRSA 13, read-out: MBC",16 µM
same,MIC,"[10]; VRSA 13, read-out: MIC",8 µM
